Experiment: Equilibrium density gradient centrifugation of adjuvanted RSV virosomes
Type: physicochemical
Settings: 10-60% sucrose gradient, spun 66 hrs, after overnight storage at 4° C.
Experimental: To 975 μl of virosomes, containing 850 nmol of phospholipids, 25 μl of DMSO solution containing 153 nmol of 3-D-PHAD was rapidly added while agitating the sample on a vortex mixer. After overnight storage at 4° C., the density of the virosomes was analyzed by equilibrium density gradient centrifugation loaded on 10-60% sucrose gradients, which were spun for 66 hrs in a Sorvall AH 650 rotor at 50 krpm. […] Samples from the gradient were analyzed for sucrose concentration by refractometry, giving a measure of density, phosphate (both lipid and 3-D-PHAD), and protein.
The above adjuvant solutions were added to four tubes with 950 μl of virosomes each, containing 850 nmol of phospholipids, with rapid mixing on a vortex. After overnight storage at 4° C., the density of the virosomes was analyzed by equilibrium density gradient centrifugation on 10-60% sucrose gradients, which were spun for 66 hrs in a Sorvall AH 650 rotor at 120 000 g. Samples from the gradient were analyzed for density, phosphate (both lipid and 3 DPHAD), and protein.

## CCCCCCCCCCCCCC(=O)O[C@H](CCCCCCCCCCC)CC(=O)O[C@@H]1[C@@H](NC(=O)C[C@@H](CCCCCCCCCCC)OC(=O)CCCCCCCCCCC)[C@H](OC[C@H]2O[C@H](O)[C@H](NC(=O)C[C@H](O)CCCCCCCCCCC)[C@@H](O)[C@@H]2O)O[C@H](CO)[C@H]1OP(=O)(O)O.N [3-D-PHAD]
  density of band in equilibrium density gradient: around 1.12 g/ml
